Structures are written as SMILES.

By inhibition is commonly meant the relative decrease from the control value, in per cent.

In the assay the target is T1, human μ opiate receptor (Homo sapiens, UniProt P35372).
T1 construct: purchased PerkinElmer Life Sciences, Zaventem, Belgium RB-HOM; host or cells: CHO-K1 cells (membrane preparation)
T1 sequence (P35372 whole entry): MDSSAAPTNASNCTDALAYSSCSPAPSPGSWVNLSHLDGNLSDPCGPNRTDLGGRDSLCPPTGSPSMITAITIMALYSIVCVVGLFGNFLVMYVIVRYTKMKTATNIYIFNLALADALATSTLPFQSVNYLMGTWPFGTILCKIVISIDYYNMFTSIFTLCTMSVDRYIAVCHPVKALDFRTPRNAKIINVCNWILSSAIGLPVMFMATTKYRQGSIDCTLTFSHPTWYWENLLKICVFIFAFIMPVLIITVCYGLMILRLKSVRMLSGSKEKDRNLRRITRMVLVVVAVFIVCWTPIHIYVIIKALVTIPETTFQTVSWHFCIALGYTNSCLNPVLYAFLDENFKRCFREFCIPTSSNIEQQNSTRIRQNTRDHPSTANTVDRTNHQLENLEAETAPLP
The assay can be described thus: Affinity for the human μ opiate receptor ([3H]-naloxone displacement, CHO-K1 receptor membrane preparation, SPA). Type of assay: binding. The following applies: test concentration of 1 μM; read-out: μ (binding on the μ opioid receptor, % inhibition). An outline of the steps: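 Readout is percent displacement of [3H]-naloxone (1 nmol/l) from human μ receptor in CHO-K1 membranes, measured at 1 μmol/l compound. Incubation runs 90 minutes at room temperature with WGA-SPA beads in Tris-HCl/BSA buffer; non-specific binding is defined with 100 μmol/l naloxone.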
Regarding `CN(C)C(c1cccs1)C1CCC(NC(=O)COC2CCN(S(=O)(=O)c3ccc(F)cc3)C2)CC1` (centres unmarked) [Example 28, N-(4-((dimethylamino)(thiophen-2-yl)methyl)cyclohexyl)-2-(1-(4-fluorophenylsulfonyl)pyrrolidin-3-yloxy)acetamide], the inhibition at 1 µM came to 97%.
In the case of `COc1cc(C)c(S(=O)(=O)N2CCC(CCOCC(=O)NC3CCC(C(c4ccc(F)cc4)N(C)C)CC3)CC2)c(C)c1C` (centres unmarked) [Example 178, N-(4-((dimethylamino)(4-fluorophenyl)methyl)cyclohexyl)-2-(2-(1-(4-methoxy-2,3,6-trimethylphenylsulfonyl)piperidin-4-yl)ethoxy)acetamide] it was 81%; in that of `Cc1cc(C)c(S(=O)(=O)N2CCC(OCC(=O)NCC3CCC(C(c4cccc(F)c4)N(C)C)CC3)C2)c(C)c1` (centres unmarked) [Example 141, N-((4-((dimethylamino)(3-fluorophenyl)methyl)cyclohexyl)methyl)-2-(1-(mesitylsulfonyl)pyrrolidin-3-yloxy)acetamide], 88%; in that of `COc1cc(C)c(S(=O)(=O)N2CCCC(OCC(=O)NCC3CCC(C(c4ccccc4)N(C)C)CC3)C2)c(C)c1C` (centres unmarked) [Example 29, N-((4-((dimethylamino)(phenyl)methyl)cyclohexyl)methyl)-2-(1-(4-methoxy-2,3,6-trimethylphenylsulfonyl)piperidin-3-yloxy)acetamide], 97%.
In the case of `COc1ccc(S(=O)(=O)N2CCCCC2COCC(=O)NCCC2CCC(C(c3cccc(F)c3)N(C)C)CC2)cc1OC` (centres unmarked) [Example 191, 2-((1-(3,4-dimethoxyphenylsulfonyl)piperidin-2-yl)methoxy)-N-(2-(4-((dimethylamino)(3-fluorophenyl)methyl)cyclohexyl)ethyl)acetamide] it was 85%.
In the case of `CN(C)C(c1cccs1)C1CCC(NC(=O)COCCN(C)S(=O)(=O)c2cccc(C(F)(F)F)c2)CC1` (centres unmarked) [Example 152, N-(4-((dimethylamino)(thiophen-2-yl)methyl)cyclohexyl)-2-(2-(N-methyl-3-(trifluoromethyl)phenylsulfonamido)ethoxy)acetamide] it was 89%; in that of `COc1cc(C)c(S(=O)(=O)N2CCC(OCC(=O)NCCC3CCC(C(c4cccs4)N(C)C)CC3)CC2)c(C)c1C` (centres unmarked) [Example 177, N-(2-(4-((dimethylamino)(thiophen-2-yl)methyl)cyclohexyl)ethyl)-2-(1-(4-methoxy-2,3,6-trimethylphenylsulfonyl)piperidin-4-yloxy)acetamide], 88%.
Consider `COc1ccc(S(=O)(=O)N2CCC(OCC(=O)NCC3CCC(C(c4ccccc4)N(C)C)CC3)C2)cc1OC` (centres unmarked) [Example 22, 2-(1-(3,4-dimethoxyphenylsulfonyl)pyrrolidin-3-yloxy)-N-((4-((dimethylamino)(phenyl)methyl)cyclohexyl)methyl)acetamide], for which the inhibition at 1 µM is 97%.
As for `COc1ccc(S(=O)(=O)N(C)CCOCC(=O)NCC2CCC(C(c3ccccc3)N(C)C)CC2)cc1OC` (centres unmarked) [Example 169, 2-(2-(3,4-dimethoxy-N-methylphenylsulfonamido)ethoxy)-N-((4-((dimethylamino)(phenyl)methyl)cyclohexyl)methyl)acetamide], the figure is 85%; as for `COc1ccc(S(=O)(=O)N2CCCC2COCC(=O)NC2CCC(C(c3ccccc3)N(C)C)CC2)cc1` (centres unmarked) [Example 182, N-(4-((dimethylamino)(phenyl)methyl)cyclohexyl)-2-((1-(4-methoxyphenylsulfonyl)pyrrolidin-2-yl)methoxy)acetamide], 82%; as for `CN(C)C(c1cccs1)C1CCC(CCNC(=O)COC2CCN(S(=O)(=O)c3ccc(F)cc3)C2)CC1` (centres unmarked) [Example 138, N-(2-(4-((dimethylamino)(thiophen-2-yl)methyl)cyclohexyl)ethyl)-2-(1-(4-fluorophenylsulfonyl)pyrrolidin-3-yloxy)acetamide], 87%.

Source of the values: patent US8106055B2, “Substituted amide compounds” (Gruenenthal GmbH, priority 2007, dated 2012).
